In one data set the target is T1, PTP1B phosphatase (Homo sapiens, UniProt P18031).
T1 construct: purchased Cayman Chemical, Ann Arbor, MI, USA
T1 sequence (P18031 1-435): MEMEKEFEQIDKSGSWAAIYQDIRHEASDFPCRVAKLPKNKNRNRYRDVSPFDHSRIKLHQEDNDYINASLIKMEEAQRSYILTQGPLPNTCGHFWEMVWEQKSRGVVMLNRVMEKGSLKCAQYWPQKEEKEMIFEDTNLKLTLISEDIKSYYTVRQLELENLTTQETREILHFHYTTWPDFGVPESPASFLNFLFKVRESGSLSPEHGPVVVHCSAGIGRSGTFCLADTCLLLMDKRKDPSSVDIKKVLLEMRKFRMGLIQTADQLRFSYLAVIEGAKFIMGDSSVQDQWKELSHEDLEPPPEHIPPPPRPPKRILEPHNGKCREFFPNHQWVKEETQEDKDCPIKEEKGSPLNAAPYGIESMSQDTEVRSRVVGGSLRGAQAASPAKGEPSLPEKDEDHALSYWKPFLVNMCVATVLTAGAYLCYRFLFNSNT
Nature of the data set: Recombinant PTP1B assay (pNPP substrate). The format is biochemical. Conditions: for inhibitory effect on PTP1B: 78.125 nM (lowest statistically significant concentration); for Ki: calculated as Ki = IC50/(S/Km + 1), S 1 mM, Km 0.7 mM, competitive type assumed from docking, read-out: Ki ± SD; for IC50: recombinant PTP1B 10 nM, 1 mM pNPP, 37 °C, HEPES pH 7.4; for inhibition of PTP1B: concentration range 39.063 to 625 nM. Here is the method: The experiment was carried out on 96-well plates. The final concentration of PTP1B phosphatase in the reaction samples was […] (10 nM). […] The enzyme activities of PTP1B phosphatase were evaluated at 37 °C using 1 mM chromogenic substrate para-nitrophenyl phosphate (pNPP) in 10 mM HEPES buffer pH 7.4. The increase in absorbance (due to the formation of para-nitrophenols) is linearly proportional to the concentration of enzyme activity (with excessive substrate, i.e., zero-order kinetics) and was measured at 405 nm using DigiRead Communication Software (version 1.2.0.2., Dan Kittrich, Asys Hitech GmbH, Eugendorf, Austria) on the Jupiter microplate reader (Biogenet, Józefów, Poland). Data were expressed as the percentage of untreated enzyme (control).

The conditions of data set [1]: cited from earlier work; for equivalents of L-ascorbic acid: antioxidant activity towards superoxide radical anion.
Data set [2] has as its system MDA-MB-231 breast cancer cell line. The experiment in a line: Cell viability assay (MTT). The data set is classed as cell-based. Conditions: 24 h. Here is the method: (§1) The MCF-7 and MDA-MB-231 breast cancer cell lines and the human keratinocyte HaCaT cell line were obtained from the American Type Culture Collection (ATCC, Manassas, VA, USA). Dulbecco’s modified eagle medium supplemented with 10% fetal bovine serum (FBS) and 1% penicillin/streptomycin was used to cultivate the cell lines. The cells were cultured at 37 °C in a 5% CO2 atmosphere.
(§2) According to the general protocol, a cell viability assay (MTT assay) was performed. […] The chemicals were dissolved in a growth medium containing 1% penicillin/streptomycin. After 24 h, 0.5 mg/mL of MTT solution (3-[4,5-dimethylthiazol-2-yl]-2,5-diphenyl-tetrazolium bromide) was added. 100 µL of DMSO was added to each well once the purple precipitate was clearly visible under the microscope. A microplate reader (Biogenet, Jozefow, Poland) and DigiRead Communication Software were used to measure the absorbance at 492 nm (Asys Hitech GmbH, Eugendorf, Austria). Data were expressed as the percentage of untreated cells (control).

Data set [3] concerns human keratinocyte HaCaT cell line. The experiment in a line: Cell viability assay (MTT). The format is cell-based. Conditions: 24 h. The procedure: as §1, §2
Data set [4] has as its system MCF-7 breast cancer cell line. Nature of the data set: Cell viability assay (MTT). The format is cell-based. Conditions: 24 h. Here is the method:
as §1, §2

A word on the Ki: it is a measure of affinity in units of concentration, obtained from inhibition or displacement. Broadly, the IC50 is the concentration at which inhibition is half-maximal. For the molecule `O.O.O.O.O=C([O-])c1cccc(C(=O)[O-])n1.[O]=[V+2]` [Compound 1, [VO(dipic)(H2O)2]·2 H2O], on PTP1B phosphatase, the “inhibitory effect on PTP1B” value is on record as 17%, the inhibitory constant (Ki) was 256 ± 15.3 nM and the IC50 came out at 628 ± 39.1 nM. For the same molecule, in data set [1], the “equivalents of L-ascorbic acid” value is recorded as 2.359. Also, the cytotoxic effect in data set [2] (MDA-MB-231, 50 µM) came to 25%. Also, the “cytotoxic effect (in words)” value in data set [3] (50 µM) is reported as “no cytotoxic effect”. In addition, in data set [3] (low concentrations), the “effect on cell growth (in words)” value is “improved cell growth at low concentrations”.

For `O.O=C([O-])c1cccc(C(=O)[O-])n1.[O]=[V+2].c1ccc(-c2ccccn2)nc1` [Compound 2, [VO(dipic)(bipy)]·H2O], at PTP1B phosphatase, the “inhibitory effect on PTP1B” value turned out to be 19%, the inhibition constant (Ki) was 173 ± 17.2 nM and the 50% inhibitory concentration (IC50) came out at 426 ± 37.1 nM. For the same molecule, in data set [1], the “equivalents of L-ascorbic acid” value is 0.936. In addition, in data set [2] (MDA-MB-231, 25 µM), the “cell viability (% of control)” value was determined as 65%. Also, the “cell viability (% of control)” value in data set [2] (MDA-MB-231, 50 µM) was found to be 56%. Further, in data set [2] (MDA-MB-231, 100 µM), the “cell viability (% of control)” value came out at 44%.

For the molecule `O.O.O=C1CNCC(=O)[O][V](=[O])[O]1.c1ccc(-c2ccccn2)nc1` [Compound 3, [VO(ida)(bipy)]·2 H2O], on PTP1B phosphatase, the “inhibitory effect on PTP1B” value is recorded as 25%, the Ki was 221 ± 19.1 nM and the IC50 was determined as 543 ± 48.4 nM. The “equivalents of L-ascorbic acid” value in data set [1] is listed as 5.43. Moreover, the “cell viability (% of control)” value in data set [2] (MDA-MB-231, 25 µM) stood at 76%. Besides, the “cell viability (% of control)” value in data set [2] (MDA-MB-231, 50 µM) is on record as 55%. For the same molecule, in data set [2] (MDA-MB-231, 100 µM), the “cell viability (% of control)” value is 46%.

On to `COc1ccnc(-c2cc(OC)ccn2)c1.O.O.O=C([O-])c1cccc(C(=O)[O-])n1.[O]=[V+2]` [Compound 4], for which, at PTP1B phosphatase, the inhibitory constant (Ki) is 74.2 ± 4.1 nM, the “inhibition of PTP1B” value is reported as 31–67% and the IC50 was 185 ± 9.8 nM. For the same molecule, the “cell viability (% of control)” value in data set [4] (MCF-7, 25 µM) is 86%. Moreover, in data set [4] (MCF-7, 50 µM), the “cell viability (% of control)” value is reported as 61%. The “cell viability (% of control)” value in data set [4] (MCF-7, 100 µM) stood at 53%.

Regarding `O.O=C1[O][V-](=[O])(=[O])[O]C(=O)c2cccc1n2.c1ccc(-c2cccc[nH+]2)cc1` [Compound 5, [VOO(dipic)](2-phepyH)·H2O], on PTP1B phosphatase, the Ki is 66.7 ± 3.3 nM, the “inhibition of PTP1B” value is 38–68% and the IC50 was 167 ± 8 nM. Also, the “calculated equivalent towards L-ascorbic acid” value in data set [1] (antioxidant activity towards superoxide anion radicals) was 0.68.

Consider `[Na+].[Na+].[Na+].[O]=[V]([O-])([O-])[O-]` [Sodium orthovanadate, reference compound], for which, at PTP1B phosphatase (complexes and orthovanadate 39.0625 nM to 5 µM, ligands 500 nM to 5 µM), the “inhibition of enzymatic activity of PTP1B (in words)” value is recorded as “inhibited the enzymatic activity of PTP1B phosphatase in a concentration-dependent manner”. Also, the “inhibition of PTP1B” value at PTP1B phosphatase is 31–67%.
